Test system: 885724-159-R-J1-PDC KRAS PDC multicell spheroid viability
Assay: Anticancer human tumor 885724-159-R-J1-PDC patient-derived pancreatic adenocarcinoma cell line growth inhibition [KRAS2]
Conditions: for viability, T/C: stronger effect = lower value
How it was run: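 Combination screen of spheroid viability in tumor-cell co-cultures with endothelial (HUVEC) and mesenchymal stem cell stroma. Each agent was tested in half-log dilutions, topping at clinical Cmax or at 10 microM without a known Cmax.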

[1] = curve of first compound, second compound 0.0316 µM
[2] = curve of first compound, second compound 0.1 µM
[3] = curve of first compound, second compound 0.316 µM
[4] = curve of first compound, second compound 1 µM
[5] = curve of first compound, second compound 3.16 µM
[6] = second compound 0.0316 µM, first compound 0.0316 µM
[7] = second compound 0.0316 µM, first compound 0.1 µM
[8] = second compound 0.0316 µM, first compound 0.316 µM
[9] = second compound 0.0316 µM, first compound 1 µM
[10] = second compound 0.0316 µM, first compound 3.16 µM
[11] = second compound 0.0316 µM, first compound 10 µM
[12] = second compound 0.1 µM, first compound 0.0316 µM
[13] = second compound 0.1 µM, first compound 0.1 µM
[14] = second compound 0.1 µM, first compound 0.316 µM
[15] = second compound 0.1 µM, first compound 1 µM
[16] = second compound 0.1 µM, first compound 3.16 µM
[17] = second compound 0.1 µM, first compound 10 µM
[18] = second compound 0.316 µM, first compound 0.0316 µM
[19] = second compound 0.316 µM, first compound 0.1 µM
[20] = second compound 0.316 µM, first compound 0.316 µM
[21] = second compound 0.316 µM, first compound 1 µM
[22] = second compound 0.316 µM, first compound 3.16 µM
[23] = second compound 0.316 µM, first compound 10 µM
[24] = second compound 1 µM, first compound 0.0316 µM
[25] = second compound 1 µM, first compound 0.1 µM
[26] = second compound 1 µM, first compound 0.316 µM
[27] = second compound 1 µM, first compound 1 µM
[28] = second compound 1 µM, first compound 3.16 µM
[29] = second compound 1 µM, first compound 10 µM
[30] = second compound 3.16 µM, first compound 0.0316 µM
[31] = second compound 3.16 µM, first compound 0.1 µM
[32] = second compound 3.16 µM, first compound 0.316 µM
[33] = second compound 3.16 µM, first compound 1 µM
[34] = second compound 3.16 µM, first compound 3.16 µM
[35] = second compound 3.16 µM, first compound 10 µM
[36] = curve of first compound, second compound 10 µM
[37] = second compound 0.1 µM, first compound 0.01 µM
[38] = second compound 0.316 µM, first compound 0.01 µM
[39] = second compound 1 µM, first compound 0.01 µM
[40] = second compound 3.16 µM, first compound 0.01 µM
[41] = second compound 10 µM, first compound 0.01 µM
[42] = second compound 10 µM, first compound 0.0316 µM
[43] = second compound 10 µM, first compound 0.1 µM
[44] = second compound 10 µM, first compound 0.316 µM
[45] = second compound 10 µM, first compound 1 µM
[46] = second compound 10 µM, first compound 3.16 µM
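Note: spheroids exposed to agents for 7 days before readout.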

Compound: CCNC(=O)CC1N=C(c2ccc(Cl)cc2)c2cc(OC)ccc2-n2c(C)nnc21 (configuration not stated) + C=CC(=O)N1CCN(c2nc(OCC3CCCN3C)nc3c2CCN(c2cccc4cccc(C)c24)C3)CC1CC#N
- IC50 [1]: 3.55 µM
- IC50 [2]: 1.18 µM
- IC50 [3]: 0.835 µM
- IC50 [4]: 0.855 µM
- IC50 [5]: < 0.0316 µM
- viability, T/C [6]: 110%
- viability, T/C [7]: 98.9%
- viability, T/C [8]: 74.7%
- viability, T/C [9]: 63.9%
- viability, T/C [10]: 49.9%
- viability, T/C [11]: 44.8%
- viability, T/C [12]: 102%
- viability, T/C [13]: 89.1%
- viability, T/C [14]: 64.8%
- viability, T/C [15]: 51%
- viability, T/C [16]: 46.3%
- viability, T/C [17]: 45.7%
- viability, T/C [18]: 118%
- viability, T/C [19]: 105%
- viability, T/C [20]: 63.5%
- viability, T/C [21]: 50.4%
- viability, T/C [22]: 45%
- viability, T/C [23]: 42.4%
- viability, T/C [24]: 87.2%
- viability, T/C [25]: 82.7%
- viability, T/C [26]: 66.5%
- viability, T/C [27]: 46.5%
- viability, T/C [28]: 45%
- viability, T/C [29]: 39.5%
- viability, T/C [30]: 49%
- viability, T/C [31]: 49.4%
- viability, T/C [32]: 39.2%
- viability, T/C [33]: 20.6%
- viability, T/C [34]: 29.3%
- viability, T/C [35]: 27.9%

Compound: CC(=O)OC12COC1CC(O)C1(C)C(=O)C(O)C3=C(C)C(OC(=O)C(O)C(NC(=O)OC(C)(C)C)c4ccccc4)CC(O)(C(OC(=O)c4ccccc4)C21)C3(C)C (configuration not stated) + CNCc1ccccc1-c1csc(C(C)Nc2nc(C)nc3cc(OC)c(OC)cc23)c1
- IC50 [2]: > 3.16 µM
- IC50 [3]: > 3.16 µM
- IC50 [4]: > 3.16 µM
- IC50 [5]: < 0.01 µM
- IC50 [36]: < 0.01 µM
- viability, T/C [37]: 81.2%
- viability, T/C [12]: 93.5%
- viability, T/C [13]: 97%
- viability, T/C [14]: 96.9%
- viability, T/C [15]: 105%
- viability, T/C [16]: 104%
- viability, T/C [38]: 85.6%
- viability, T/C [18]: 92.2%
- viability, T/C [19]: 96.2%
- viability, T/C [20]: 98.9%
- viability, T/C [21]: 101%
- viability, T/C [22]: 100%
- viability, T/C [39]: 84.6%
- viability, T/C [24]: 97.9%
- viability, T/C [25]: 104%
- viability, T/C [26]: 101%
- viability, T/C [27]: 103%
- viability, T/C [28]: 105%
- viability, T/C [40]: 0.36%
- viability, T/C [30]: 93.9%
- viability, T/C [31]: 1.4%
- viability, T/C [32]: 0.54%
- viability, T/C [33]: 13%
- viability, T/C [34]: 110%
- viability, T/C [41]: 0.32%
- viability, T/C [42]: 0.17%
- viability, T/C [43]: 0.21%
- viability, T/C [44]: 0.2%
- viability, T/C [45]: 0.22%
- viability, T/C [46]: 0.28%

Compound: O=C(c1cc(Cc2n[nH]c(=O)c3ccccc23)ccc1F)N1CCN(C(=O)C2CC2)CC1 + C=CC(=O)N1CCN(c2nc(OCC3CCCN3C)nc3c2CCN(c2cccc4cccc(C)c24)C3)CC1CC#N
- IC50 [1]: > 10 µM
- IC50 [2]: > 10 µM
- IC50 [3]: > 10 µM
- IC50 [4]: > 10 µM
- IC50 [5]: 4.94 µM
- viability, T/C [6]: 127%
- viability, T/C [7]: 120%
- viability, T/C [8]: 119%
- viability, T/C [9]: 119%
- viability, T/C [10]: 112%
- viability, T/C [11]: 96.7%
- viability, T/C [12]: 122%
- viability, T/C [13]: 118%
- viability, T/C [14]: 117%
- viability, T/C [15]: 109%
- viability, T/C [16]: 104%
- viability, T/C [17]: 93%
- viability, T/C [18]: 111%
- viability, T/C [19]: 115%
- viability, T/C [20]: 113%
- viability, T/C [21]: 108%
- viability, T/C [22]: 99%
- viability, T/C [23]: 101%
- viability, T/C [24]: 112%
- viability, T/C [25]: 116%
- viability, T/C [26]: 106%
- viability, T/C [27]: 108%
- viability, T/C [28]: 108%
- viability, T/C [29]: 89%
- viability, T/C [30]: 66.9%
- viability, T/C [31]: 65%
- viability, T/C [32]: 60.5%
- viability, T/C [33]: 58%
- viability, T/C [34]: 58.3%
- viability, T/C [35]: 40.8%

Compound: CC1(C)CCC(CN2CCN(c3ccc(C(=O)NS(=O)(=O)c4ccc(NCC5CCOCC5)c([N+](=O)[O-])c4)c(Oc4cnc5[nH]ccc5c4)c3)CC2)=C(c2ccc(Cl)cc2)C1
- viability, T/C (compound 0.0316 µM): 100% [middle of 5 runs]
- viability, T/C (compound 0.1 µM): 103% [middle of 5 runs]
- viability, T/C (compound 0.316 µM): 100% [middle of 5 runs]
- viability, T/C (compound 1 µM): 97.1% [middle of 5 runs]
- IC50 (curve of compound): 9.05 µM [middle of 5 runs]

Compound: CC(=O)OC12COC1CC(O)C1(C)C(=O)C(O)C3=C(C)C(OC(=O)C(O)C(NC(=O)OC(C)(C)C)c4ccccc4)CC(O)(C(OC(=O)c4ccccc4)C21)C3(C)C (configuration not stated) + C=CC(=O)N1CCN(c2nc(=O)n(-c3c(C)ccnc3C(C)C)c3nc(-c4c(O)cccc4F)c(F)cc23)C(C)C1
- IC50 [2]: > 3.16 µM
- IC50 [3]: > 3.16 µM
- IC50 [4]: > 3.16 µM
- IC50 [5]: > 3.16 µM
- IC50 [36]: > 3.16 µM
- viability, T/C [37]: 91.7%
- viability, T/C [12]: 104%
- viability, T/C [13]: 95.5%
- viability, T/C [14]: 107%
- viability, T/C [15]: 110%
- viability, T/C [16]: 112%
- viability, T/C [38]: 94.6%
- viability, T/C [18]: 102%
- viability, T/C [19]: 104%
- viability, T/C [20]: 112%
- viability, T/C [21]: 112%
- viability, T/C [22]: 112%
- viability, T/C [39]: 105%
- viability, T/C [24]: 119%
- viability, T/C [25]: 114%
- viability, T/C [26]: 103%
- viability, T/C [27]: 119%
- viability, T/C [28]: 125%
- viability, T/C [40]: 99.1%
- viability, T/C [30]: 114%
- viability, T/C [31]: 113%
- viability, T/C [32]: 112%
- viability, T/C [33]: 111%
- viability, T/C [34]: 121%
- viability, T/C [41]: 80.8%
- viability, T/C [42]: 84.1%
- viability, T/C [43]: 87.7%
- viability, T/C [44]: 86%
- viability, T/C [45]: 86.6%
- viability, T/C [46]: 78.3%

Compound: O=C(c1cc(Cc2n[nH]c(=O)c3ccccc23)ccc1F)N1CCN(C(=O)C2CC2)CC1
- viability, T/C (compound 0.0316 µM): 104% [middle of 5 runs]
- viability, T/C (compound 0.1 µM): 106% [middle of 5 runs]
- viability, T/C (compound 0.316 µM): 105% [middle of 5 runs]
- viability, T/C (compound 1 µM): 106% [middle of 5 runs]
- viability, T/C (compound 3.16 µM): 101% [middle of 5 runs]
- viability, T/C (compound 10 µM): 82.5% [middle of 5 runs]
- IC50 (curve of compound): > 10 µM

Compound: CN(C)C/C=C/C(=O)Nc1cc2c(Nc3ccc(F)c(Cl)c3)ncnc2cc1O[C@H]1CCOC1 + C=CC(=O)N1CCN(c2nc(OCC3CCCN3C)nc3c2CCN(c2cccc4cccc(C)c24)C3)CC1CC#N
- IC50 [1]: > 0.1 µM
- IC50 [2]: > 0.1 µM
- IC50 [3]: > 0.1 µM
- IC50 [4]: > 0.1 µM
- IC50 [5]: 0.00157 µM
- viability, T/C (second compound 0.0316 µM, first compound 0.000316 µM): 116%
- viability, T/C (second compound 0.0316 µM, first compound 0.001 µM): 112%
- viability, T/C (second compound 0.0316 µM, first compound 0.00316 µM): 98.5%
- viability, T/C (second compound 0.0316 µM, first compound 0.01 µM): 94.5%
- viability, T/C [6]: 89.1%
- viability, T/C [7]: 80.3%
- viability, T/C (second compound 0.1 µM, first compound 0.000316 µM): 109%
- viability, T/C (second compound 0.1 µM, first compound 0.001 µM): 101%
- viability, T/C (second compound 0.1 µM, first compound 0.00316 µM): 96.5%
- viability, T/C [37]: 83.1%
- viability, T/C [12]: 77.4%
- viability, T/C [13]: 72%
- viability, T/C (second compound 0.316 µM, first compound 0.000316 µM): 105%
- viability, T/C (second compound 0.316 µM, first compound 0.001 µM): 106%
- viability, T/C (second compound 0.316 µM, first compound 0.00316 µM): 92.4%
- viability, T/C [38]: 84.1%
- viability, T/C [18]: 72%
- viability, T/C [19]: 65.7%
- viability, T/C (second compound 1 µM, first compound 0.000316 µM): 95%
- viability, T/C (second compound 1 µM, first compound 0.001 µM): 100%
- viability, T/C (second compound 1 µM, first compound 0.00316 µM): 86.8%
- viability, T/C [39]: 78.4%
- viability, T/C [24]: 68.7%
- viability, T/C [25]: 63.9%
- viability, T/C (second compound 3.16 µM, first compound 0.000316 µM): 61.5%
- viability, T/C (second compound 3.16 µM, first compound 0.001 µM): 55.9%
- viability, T/C (second compound 3.16 µM, first compound 0.00316 µM): 40.8%
- viability, T/C [40]: 37.7%
- viability, T/C [30]: 36.4%
- viability, T/C [31]: 37.7%
